TGI data for 16 compounds are collected here from PubChem BioAssay (NCI).

Molecules are shown by their SMILES.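 Values below derive from 48-hour exposures of cells grown in 96-well plates, with endpoints linearly interpolated between the two concentrations bracketing the appropriate inhibition level. TGI is the concentration that stops growth completely.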 A value given as a limit tells only on which side of the number the result lay.

Test in all cases: NCI tumour cell line growth inhibition, 48 h
Assay [1] deals with HCT-15 colon.
Assay [2] concerns LOX IMVI melanoma.
Assay [3] relates to M14 melanoma.
The test system of assay [4] is PC-3 prostate.
Assay [5] relates to RPMI-8226 leukemia.
Assay [6] deals with SK-OV-3 ovarian.
In assay [7] the test system is SW-620 colon.
Assay [8] deals with T-47D breast.
In assay [9] the test system is U251 CNS.
The test system of assay [10] is HL-60(TB) leukemia.

On to `CCn1c(SCc2nnc(Nc3ccccc3)s2)nc2ccccc2c1=O`, for which the TGI in assay [1] is over 100 µM; in assay [2], 25.4 µM; in assay [3] it was over 61.4 µM; in assay [4], over 67.4 µM; in [5] it was 37.1 µM; in assay [6], 7.66 µM. Besides, the TGI in assay [7] is over 68.3 µM; in assay [8] it was 27 µM; in assay [9], 5.3 µM.
As for `CC1Cc2c(cc(N)nc2Br)NC1=O` (stereo unspecified), the TGI in assay [1], in assay [2], in assay [3], in assay [4], in assay [5] and in assay [6] was over 100 µM throughout. Besides, the TGI in assay [7], in [8] and in [9] was over 100 µM throughout.
For the compound `c1cc2c3c(c1)[C@@H]1O[C@@H]1c1cccc(c1-3)[C@@H]1O[C@H]21`, the TGI in assay [1] was 47.2 µM; in assay [2], 10.7 µM; in [3], 34.1 µM; in assay [4], 51.9 µM; in assay [6], over 100 µM; in assay [8], 62.8 µM. In [9], this compound had a TGI of 33 µM.
For the compound `O=c1cnc2cc3ccccc3cc2[nH]1`, the TGI in [1], in assay [10], in assay [2], in [3], in assay [4] and in assay [5] was over 100 µM each time. Also, the TGI in assay [6], in [7] and in [9] was over 100 µM throughout.
With `COc1ccc(C(=O)/C=C/c2ccc(OCCCOc3ccc(/C=C/C(=O)c4ccc(OC)c(OC)c4)cc3)cc2)cc1OC`, the TGI in assay [1], in assay [10], in assay [3], in assay [4], in assay [5] and in assay [6] was over 100 µM throughout. The TGI in assay [7], in assay [8] and in assay [9] was over 100 µM throughout.
Turning to `OCC1c2ccccc2-n2nc(-c3ccccc3)c(O)c21` (stereo unspecified), the TGI in assay [1] was 29.2 µM; in [2], 47 µM; in assay [4] it was 34.3 µM; in assay [6] it was over 100 µM; in [7] it was 67.3 µM; in assay [8], over 100 µM. Moreover, in assay [9], the TGI amounted to 52.8 µM.
As for `COc1ccccc1NC(=O)CSC(N)=O`, the TGI in assay [1], in assay [10], in assay [2], in assay [3], in assay [5] and in [6] was over 100 µM throughout. The figures for the TGI in assay [7] and in assay [9] were over 100 µM and 66.2 µM, respectively.
With `O=C(NCCNCCO)N/N=C/c1ccccc1`, the TGI in assay [1], in [10], in assay [2], in [3], in assay [6] and in [7] was over 100 µM throughout. In addition, in assay [9], the TGI was over 100 µM.
Regarding `C/C(=C\COP(=O)(O)OP(=O)(O)O)CC/C=C(\C)CNc1ccccc1`, the TGI in [1] is over 50 µM; in assay [2], over 50 µM; in [3] it was over 50 µM; in assay [4], over 50 µM; in assay [5], 0.0403 µM; in assay [6], over 50 µM. Further, the TGI in assay [7], in assay [8] and in [9] was over 50 µM in each case.
In the case of `CC(C)(C)C(=O)O[C@H]1C=C[C@@H](O)[C@@H]2[C@H]1[C@@H]1C=C[C@H]2C1`, the TGI in [1] is 83.5 µM; in assay [10] it was 33.8 µM; in [2], over 100 µM; in assay [3], over 100 µM; in [5], 83 µM; in [6], over 100 µM. Besides, the TGI in [7], in assay [8] and in [9] was over 100 µM each time.
For `Cc1cn([C@@H]2C[C@](C)(CO)N(C)O2)c(=O)[nH]c1=O`, the TGI in [1], in assay [10], in [2], in assay [3], in assay [4] and in assay [5] was over 100 µM in each case. The TGI in assay [6], in assay [7] and in assay [9] was over 100 µM each time.
Regarding `CC(=O)OCC1(CNc2nc(N)ncc2C#N)CC(CCc2ccccc2)C1` (stereo unspecified), the TGI in assay [1], in assay [10], in assay [2], in assay [4], in assay [7] and in assay [8] was over 100 µM throughout. The TGI in assay [9] is over 100 µM.
As to `CCOC(=O)/C(C1=N[C@H](C(=O)OCC)CS1)=C(\O)c1ccccc1`, the TGI in [1], in assay [10], in assay [2], in assay [3], in assay [5] and in assay [7] was over 100 µM throughout. Further, the TGI in [9] was over 100 µM.
With `Cc1ccc(S(=O)(=O)CC2CCCn3c2c(C#N)c2ccccc23)cc1` (stereo unspecified), the TGI in [1], in [2], in assay [3], in [4], in [5] and in [6] was over 100 µM each time. For the same compound, the TGI in [7], in [8] and in assay [9] was over 100 µM throughout.
For the compound `NNc1nnc(-c2ccccc2)nc1Cc1ccccc1`, the TGI in assay [1] was over 100 µM; in assay [10], 38 µM; in assay [2] it was 30.5 µM; in [3], 45.5 µM; in [6] it was over 100 µM; in assay [7], over 100 µM. Moreover, in assay [9], the TGI is over 100 µM.
Take `C/C(=N\NC(=O)c1ccncc1)c1cccc(C(F)(F)F)c1`: the TGI in [1], in assay [10], in assay [2], in [3], in assay [5] and in [6] was over 10 µM throughout. The TGI in assay [7], in assay [8] and in assay [9] was over 10 µM in each case.
